Results published in patent US20240034743A9, “TRICYCLIC COMPOUNDS AS EGFR INHIBITORS” (QILU PHARMACEUTICAL CO., LTD., priority 2020, published 2024).
Like-named read-outs stand apart in the source and are kept apart here.

Legend:
EGFR WT (wild type EGFR) = EGFR WT (wild type EGFR) (Homo sapiens (Human), UniProt P00533); experiment: In vitro enzymatic TR-FRET (HTRF KinEASE-TK) kinase assay, EGFR WT; type: biochemical; conditions: kinase activity, TR-FRET; read-out: EGFR (WT) IC50
In short: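 Recombinant enzyme preincubated with compound 10 min at room temperature in kinase buffer with 5 mM MgCl2, 1 mM MnCl2, 1 mM DTT. Biotinylated TK substrate plus ATP then added for 40 min. HTRF detection (Sa-XL665, Cryptate antibody) for 1 h; IC50 from 665/615 nm ratio.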

EGFR L858R/T790M/C797S = EGFR L858R/T790M/C797S (Homo sapiens (Human), UniProt P00533, C797S/L858R/T790M); experiment: In vitro enzymatic TR-FRET (HTRF KinEASE-TK) kinase assay, EGFR L858R/T790M/C797S; type: biochemical; conditions: kinase activity
Method: (I) In Vitro Enzymatic Experiment for EGFR WT and EGFR L858R/T790M/C797S
In the assay, the inhibition effect of the compound on the kinase activity of EGFR WT (wild type EGFR) and EGFR L858R/T790M/C797S was tested by adopting a time-resolved fluorescence resonance energy transfer (TR-FRET) method, and half maximal inhibitory concentration IC50 of the compound on the kinase activity of EGFR was obtained.
EGFR recombinase and EGFR L858R/T790M/C797S recombinase, purchased from Signalchem.
HTRF KinEASE-TK kit, purchased from Cisbio.
DTT, MnCl2, and MgCl2, purchased from Sigma.
ATP, purchased from Promega.
Brigatinib, purchased from Selleck.
1) 1× working solution was prepared: 5 mM MgCl2; 1 mM DTT; 1 mM MnCl2 and 1× kinase buffer (in kit).
2) […] of gradiently-diluted compound was transferred to a 384-well plate using Echo 550 (Labcyte).
3) 5 μL of 2× EGFR WT or EGFR L858R/T790M/C797S recombinase solution was added to the 384-well plate, and the plate was incubated at room temperature for 10 min.
4) 5 μL of 2× TK-substrate-biotin substrate solution (containing ATP) was added to the 384-well plate, and the plate was incubated at room temperature for 40 min.
5) 5 μL of assay solution containing Sa-XL 665 HTRF and 5 μL of TK-antibody-Cryptatewas were added to the plate, and the plate was incubated at room temperature for 1 h.
6) The fluorescence signal values at 615 nm and 665 nm were measured for each well using an Envision microplate reader (PerkinElmer).
7) The ratio of fluorescence signal values at 665 nm and 615 nm was calculated for each well.
8) Data analysis was performed using GraphPad Prism software to give the IC50 for compounds.

A431 cells (EGFR WT) = experiment: A431 cell proliferation inhibition assay (CellTiter-Glo); type: cell-based; conditions: cell proliferation, 72 h, CellTiter-Glo, read-out: A431 EGFR WT IC50
In short: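 Seeded cells grown 24 h, then exposed 72 h (37° C, 5% CO2) to graded compound dilutions at 0.1% DMSO final. Viability read by CellTiter-Glo luminescence after 30 min at room temperature; IC50 fitted from the dose curve.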

[1] = tested on: Ba/F3_Del19/T790M/C797S cells; experiment: Ba/F3_Del19/T790M/C797S cell proliferation inhibition assay (CellTiter-Glo); type: cell-based; conditions: cell proliferation, 72 h, CellTiter-Glo, read-out: Ba/F3 (Del19/T790M/C797S) IC50
In short: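 Ba/F3 cells carrying EGFR Del19/T790M/C797S were seeded at 700 cells/well and exposed to serially diluted compound (0.1% DMSO final) for 72 h at 37° C. Viability was read by CellTiter-Glo luminescence to give IC50.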

[2] = tested on: Ba/F3_L858R/T790M/C797S cells; experiment: Ba/F3_L858R/T790M/C797S cell proliferation inhibition assay (CellTiter-Glo); type: cell-based; conditions: cell proliferation, 72 h, CellTiter-Glo, read-out: Ba/F3 (L858R/T790M/C797S) IC50
In short: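 Ba/F3 cells engineered to carry EGFR L858R/T790M/C797S, seeded at 700 cells/well, exposed to serially diluted compound (0.1% DMSO final) for 72 h at 37 °C, 5% CO2. Viability read by CellTiter-Glo luminescence after 30 min at room temperature; IC50 from dose-response fit.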

EGFR WT (wild type EGFR), sequence (P00533 25-1210): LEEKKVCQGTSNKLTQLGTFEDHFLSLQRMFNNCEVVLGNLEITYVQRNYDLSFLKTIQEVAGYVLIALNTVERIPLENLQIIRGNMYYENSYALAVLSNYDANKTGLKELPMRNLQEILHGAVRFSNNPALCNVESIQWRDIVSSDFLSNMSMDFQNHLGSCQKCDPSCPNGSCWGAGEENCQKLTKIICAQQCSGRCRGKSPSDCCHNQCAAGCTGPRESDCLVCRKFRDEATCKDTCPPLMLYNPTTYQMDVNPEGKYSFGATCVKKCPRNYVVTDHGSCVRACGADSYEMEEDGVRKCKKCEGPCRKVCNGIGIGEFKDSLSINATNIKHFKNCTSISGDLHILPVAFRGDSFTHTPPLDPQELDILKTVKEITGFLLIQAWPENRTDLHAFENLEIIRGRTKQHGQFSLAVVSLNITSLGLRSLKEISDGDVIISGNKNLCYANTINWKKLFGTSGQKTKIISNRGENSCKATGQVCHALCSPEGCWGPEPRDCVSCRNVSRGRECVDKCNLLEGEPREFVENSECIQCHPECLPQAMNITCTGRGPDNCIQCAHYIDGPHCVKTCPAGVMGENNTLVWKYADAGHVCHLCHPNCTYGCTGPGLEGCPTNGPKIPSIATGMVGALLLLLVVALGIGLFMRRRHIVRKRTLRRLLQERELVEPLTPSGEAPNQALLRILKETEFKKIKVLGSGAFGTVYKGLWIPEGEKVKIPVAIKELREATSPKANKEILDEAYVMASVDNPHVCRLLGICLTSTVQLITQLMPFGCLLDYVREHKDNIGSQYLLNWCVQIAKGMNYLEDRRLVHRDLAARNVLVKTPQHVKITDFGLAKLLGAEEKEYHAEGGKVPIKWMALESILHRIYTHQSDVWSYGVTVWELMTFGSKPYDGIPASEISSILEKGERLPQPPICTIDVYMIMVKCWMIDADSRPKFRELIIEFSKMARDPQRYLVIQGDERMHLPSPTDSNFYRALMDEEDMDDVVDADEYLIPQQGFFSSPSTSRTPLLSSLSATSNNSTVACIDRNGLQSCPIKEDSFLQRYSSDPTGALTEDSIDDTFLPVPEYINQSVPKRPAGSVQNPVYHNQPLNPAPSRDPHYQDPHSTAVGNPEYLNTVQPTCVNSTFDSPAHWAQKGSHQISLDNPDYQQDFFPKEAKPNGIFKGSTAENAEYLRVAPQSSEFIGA
EGFR L858R/T790M/C797S, sequence (P00533 25-1210 T790M/C797S/L858R): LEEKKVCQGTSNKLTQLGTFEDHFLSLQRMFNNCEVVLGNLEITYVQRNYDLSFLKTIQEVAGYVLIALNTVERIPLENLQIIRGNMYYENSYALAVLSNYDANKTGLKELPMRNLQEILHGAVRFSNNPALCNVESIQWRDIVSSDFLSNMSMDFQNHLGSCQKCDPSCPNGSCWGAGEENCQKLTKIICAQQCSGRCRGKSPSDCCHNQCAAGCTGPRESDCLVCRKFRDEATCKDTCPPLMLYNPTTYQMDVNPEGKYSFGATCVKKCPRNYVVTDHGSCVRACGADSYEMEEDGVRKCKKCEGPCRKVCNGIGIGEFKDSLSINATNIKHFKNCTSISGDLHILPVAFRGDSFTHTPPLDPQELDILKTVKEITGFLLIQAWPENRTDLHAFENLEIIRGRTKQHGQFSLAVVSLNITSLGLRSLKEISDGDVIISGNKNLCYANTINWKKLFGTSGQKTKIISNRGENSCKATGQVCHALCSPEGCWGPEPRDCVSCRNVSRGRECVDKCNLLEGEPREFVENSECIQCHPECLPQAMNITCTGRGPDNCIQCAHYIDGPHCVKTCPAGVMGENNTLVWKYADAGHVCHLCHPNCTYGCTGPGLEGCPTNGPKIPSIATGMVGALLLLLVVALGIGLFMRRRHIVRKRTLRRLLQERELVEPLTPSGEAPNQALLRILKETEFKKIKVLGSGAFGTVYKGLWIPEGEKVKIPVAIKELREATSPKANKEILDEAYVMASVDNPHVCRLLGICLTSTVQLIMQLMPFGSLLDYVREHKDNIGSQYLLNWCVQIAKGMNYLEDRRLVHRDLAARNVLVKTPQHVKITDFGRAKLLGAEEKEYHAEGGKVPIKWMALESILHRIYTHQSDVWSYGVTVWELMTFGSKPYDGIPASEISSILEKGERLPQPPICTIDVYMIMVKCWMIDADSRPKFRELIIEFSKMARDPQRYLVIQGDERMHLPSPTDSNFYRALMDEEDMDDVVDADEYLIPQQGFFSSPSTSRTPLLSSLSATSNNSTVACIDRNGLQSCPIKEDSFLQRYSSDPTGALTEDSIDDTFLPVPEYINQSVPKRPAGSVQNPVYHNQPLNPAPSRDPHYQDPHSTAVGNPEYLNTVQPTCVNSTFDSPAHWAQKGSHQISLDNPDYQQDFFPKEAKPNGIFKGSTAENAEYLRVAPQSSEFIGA

COc1cc2c(cc1Nc1ncc(Br)c(Nc3ccccc3P(C)(C)=O)n1)-c1cnn(C)c1CCN2[C@@H]1CCN(C)C[C@H]1F (single isomer, unassigned) [Compound 66A]
IC50 (EGFR WT (wild type EGFR)): 1 to 10 nM
IC50 (EGFR L858R/T790M/C797S): < 1 nM
IC50 (A431 cells (EGFR WT)): 100 to 1000 nM
IC50 [1]: < 10 nM
IC50 [2]: 10 to 50 nM

COc1cc2c(cc1Nc1ncc(Br)c(Nc3ccccc3P(C)(C)=O)n1)-c1cnn(C)c1CCN2[C@H]1CCN(C)C[C@@H]1F (single isomer, unassigned) [Compound 66B]
IC50 (EGFR WT (wild type EGFR)): 1 to 10 nM
IC50 (EGFR L858R/T790M/C797S): < 1 nM
IC50 (A431 cells (EGFR WT)): 100 to 1000 nM
IC50 [1]: < 10 nM
IC50 [2]: 10 to 50 nM

COc1cc2c(cc1Nc1ncc(C)c(Nc3ccc4nccnc4c3P(C)(C)=O)n1)-c1cnn(C)c1CCN2C [Compound 5]
IC50 (EGFR WT (wild type EGFR)): < 1 nM
IC50 (EGFR L858R/T790M/C797S): < 1 nM
IC50 (A431 cells (EGFR WT); Homo sapiens, A-431): 50 to 100 nM
IC50 ([1]; Mus musculus, BaF3): < 10 nM
IC50 ([2]; Mus musculus, BaF3): < 10 nM

COc1cc2c(cc1Nc1ncc(Br)c(Nc3ccc4nccnc4c3P(C)(C)=O)n1)-c1cnn(C)c1CCN2C1CN(C)C1 [Compound 10]
IC50 (EGFR WT (wild type EGFR)): < 1 nM
IC50 (EGFR L858R/T790M/C797S): < 1 nM
IC50 (A431 cells (EGFR WT); Homo sapiens, A-431): 10 to 50 nM
IC50 ([1]; Mus musculus, BaF3): < 10 nM
IC50 ([2]; Mus musculus, BaF3): < 10 nM

COc1cc2c(cc1Nc1ncc(F)c(Nc3ccccc3P(C)(C)=O)n1)-c1cnn(C)c1CCN2C [Compound 17]
IC50 (EGFR WT (wild type EGFR)): 1 to 10 nM
IC50 (EGFR L858R/T790M/C797S): 1 to 10 nM
IC50 (A431 cells (EGFR WT); Homo sapiens, A-431): 100 to 1000 nM
IC50 ([1]; Mus musculus, BaF3): 10 to 50 nM
IC50 ([2]; Mus musculus, BaF3): 50 to 100 nM

Cc1cnc(Nc2cc3c(cc2OC(C)C)N(C)CCc2c-3cnn2C)nc1Nc1ccccc1P(C)(C)=O [Compound 18]
IC50 (EGFR WT (wild type EGFR)): 50 to 100 nM
IC50 (EGFR L858R/T790M/C797S): 1 to 10 nM
IC50 (A431 cells (EGFR WT); Homo sapiens, A-431): > 1000 nM
IC50 ([1]; Mus musculus, BaF3): 50 to 100 nM
IC50 ([2]; Mus musculus, BaF3): 100 to 1000 nM

COc1cc2c(cc1Nc1nccc(Nc3ccccc3P(C)(C)=O)n1)-c1cnn(C)c1CCN2C [Compound 22]
IC50 (EGFR WT (wild type EGFR)): 10 to 50 nM
IC50 (EGFR L858R/T790M/C797S): 1 to 10 nM
IC50 (A431 cells (EGFR WT); Homo sapiens, A-431): > 1000 nM
IC50 ([1]; Mus musculus, BaF3): 10 to 50 nM
IC50 ([2]; Mus musculus, BaF3): 100 to 1000 nM

COc1cc2c(cc1Nc1ncc(C)c(Nc3ccccc3P(C)(C)=O)n1)-c1cnn(C)c1CCN2C#N [Compound 23]
IC50 (EGFR WT (wild type EGFR)): 10 to 50 nM
IC50 (EGFR L858R/T790M/C797S): 1 to 10 nM
IC50 (A431 cells (EGFR WT); Homo sapiens, A-431): 100 to 1000 nM
IC50 ([1]; Mus musculus, BaF3): 10 to 50 nM
IC50 ([2]; Mus musculus, BaF3): 50 to 100 nM

COc1cc2c(cc1Nc1ncc(C3CC3)c(Nc3ccccc3P(C)(C)=O)n1)-c1cnn(C)c1CCN2C [Compound 30]
IC50 (EGFR WT (wild type EGFR)): 10 to 50 nM
IC50 (EGFR L858R/T790M/C797S): < 1 nM
IC50 (A431 cells (EGFR WT); Homo sapiens, A-431): 100 to 1000 nM
IC50 ([1]; Mus musculus, BaF3): 10 to 50 nM
IC50 ([2]; Mus musculus, BaF3): 50 to 100 nM

COc1ccc(Cn2ncc3c2CCN(C)c2cc(OC)c(Nc4ncc(Br)c(Nc5ccccc5P(C)(C)=O)n4)cc2-3)cc1 [Compound 34]
IC50 (EGFR WT (wild type EGFR)): 50 to 100 nM
IC50 (EGFR L858R/T790M/C797S): 1 to 10 nM
IC50 (A431 cells (EGFR WT); Homo sapiens, A-431): > 1000 nM
IC50 ([1]; Mus musculus, BaF3): 10 to 50 nM
IC50 ([2]; Mus musculus, BaF3): 10 to 50 nM

COc1cc2c(cc1Nc1ncc(Br)c(Nc3ccc4nccnc4c3NS(C)(=O)=O)n1)-c1cnn(C)c1CCN2C [Compound 35]
IC50 (EGFR WT (wild type EGFR)): < 1 nM
IC50 (EGFR L858R/T790M/C797S): < 1 nM
IC50 (A431 cells (EGFR WT); Homo sapiens, A-431): 100 to 1000 nM
IC50 ([1]; Mus musculus, BaF3): < 10 nM
IC50 ([2]; Mus musculus, BaF3): 10 to 50 nM

COc1cc2c(cc1Nc1ncc(Cl)c(Nc3ccccc3P(C)(C)=O)n1)-c1cnn(C)c1CCN2C(C)C [Compound 45]
IC50 (EGFR WT (wild type EGFR)): 1 to 10 nM
IC50 (EGFR L858R/T790M/C797S): < 1 nM
IC50 (A431 cells (EGFR WT); Homo sapiens, A-431): 100 to 1000 nM
IC50 ([1]; Mus musculus, BaF3): < 10 nM
IC50 ([2]; Mus musculus, BaF3): 10 to 50 nM

COc1ccc(CN2Cc3cc(OC)c(Nc4ncc(Br)c(Nc5ccc6nccnc6c5P(C)(C)=O)n4)cc3-c3cnn(C)c3C2)c(OC)c1 [Compound 57]
IC50 (EGFR WT (wild type EGFR)): 50 to 100 nM
IC50 (EGFR L858R/T790M/C797S): 1 to 10 nM
IC50 (A431 cells (EGFR WT); Homo sapiens, A-431): 100 to 1000 nM
IC50 ([1]; Mus musculus, BaF3): 10 to 50 nM
IC50 ([2]; Mus musculus, BaF3): 50 to 100 nM

COc1cc2c(cc1Nc1ncc(Br)c(Nc3ccc4nccnc4c3P(C)(C)=O)n1)-c1cnn(C)c1CCN2C1CCN(C)C[C@@H]1F (stereo partly shown) [Compound 68]
IC50 (EGFR WT (wild type EGFR)): < 1 nM
IC50 (EGFR L858R/T790M/C797S): < 1 nM
IC50 (A431 cells (EGFR WT)): 50 to 100 nM
IC50 [1]: < 10 nM
IC50 [2]: < 10 nM

COc1cc2c(cc1Nc1ncc(Br)c(Nc3ccccc3P(C)(C)=O)n1)-c1cnn(C3COC3)c1CCN2C(C)C [Compound 77A]
IC50 (EGFR WT (wild type EGFR)): 1 to 10 nM
IC50 (EGFR L858R/T790M/C797S): < 1 nM
IC50 (A431 cells (EGFR WT)): 100 to 1000 nM
IC50 [1]: < 10 nM
IC50 [2]: 10 to 50 nM

COc1cc2c(cc1Nc1ncc(Br)c(Nc3ccc4nccnc4c3C(N)=O)n1)-c1cnn(C)c1CCN2C(C)C [Compound 115]
IC50 (EGFR L858R/T790M/C797S): 1 to 10 nM
IC50 (A431 cells (EGFR WT); Homo sapiens, A-431): > 1000 nM
IC50 ([1]; Mus musculus, BaF3): < 10 nM
IC50 ([2]; Mus musculus, BaF3): 10 to 50 nM
